{"source": "paper PMC8228365", "about": "“Degradation Products of Tryptophan in Cell Culture Media: Contribution to Color and Toxicity” (International Journal of Molecular Sciences, 2021)", "key": {"CHOK1 GS cells": {"system": "CHOK1 GS cells", "experiment": "CellTiter-Glo cytotoxicity assay in CHOK1 GS cell line", "format": "cell-based, Chinese hamster", "details": "Cricetulus griseus", "protocol": "To assay the potential toxicity induced in the CHO cell culture by the Trp degradation products found in this study, a cytotoxicity assay CellTiter-Glo® Luminescent Cell Viability Assay (Cat #G7572, Promega, Madison, WI, USA) was used, following the manufacturer’s instructions. Briefly, the cells were seeded with 25,000 viable cells per cavity of a 96-well opaque white cell culture plate (Thermo Fisher, Waltham, MA, USA) in 80 µL of a pre-warmed medium. […] A DMSO control was added in the same concentration range as the tryptophan degradation compounds were diluted."}, "[1]": {"experiment": "Color measurement (ΔE*) of standards spiked into water", "format": "physicochemical", "details": "theoretical 500 µM, 1% DMSO, ΔE* > 1 deemed significant", "protocol": "(§1) Compounds were dissolved in DMSO at 50 mM and then spiked into the solutions to achieve a final compound concentration of 500µM. Some of the tested compounds formed a precipitate immediately upon spiking of the DMSO solution. As the precipitates in solution can interfere with the absorption measurement, each sample was centrifuged prior to taking absorption measurements, meaning that the final concentrations were not all at 500 µM. […] In stability experiments, eight of these nine compounds (all except 46) were present in at least one condition in the degraded water samples, and four of these nine compounds (28, 31, 38, and 46) were present in the degraded feed.\n(§2) Absorbance measurements were taken in the range of 380 nm to 780 nm (20 nm steps) of 100 µL of the samples in four technical replicates (Envision, Perkin Elmer, Waltham, MA, USA). From the absorbance values, the change in color was calculated using L*a*b* and ΔE* values according to DIN 5033-3 and DIN 6174 norms. The CIE 1931 standard observer (2°) and the D65 illuminant were selected.\n(§3) Chemical standards were prepared as 50 mM stocks in DMSO and then spiked into the aqueous solutions (either water or feed) to achieve a theoretical compound concentration of 500 µM (1% DMSO). The solutions were centrifuged, and the absorbance measurements of these solutions was measured and converted to ΔE* values as described above. The control condition was pure DMSO (1% v/v)."}, "CHOZN 6 cells": {"system": "CHOZN 6 cells", "experiment": "CellTiter-Glo cytotoxicity assay in CHOZN 6 cell line", "format": "cell-based, Chinese hamster", "details": "Cricetulus griseus; CHOZN 6 cell line; 1 mM to 46 nM, 4PL fit; read-out: [GI50] CHOZN 6", "protocol": "(§4) To assay the potential toxicity induced in the CHO cell culture by the Trp degradation products found in this study, a cytotoxicity assay CellTiter-Glo® Luminescent Cell Viability Assay (Cat #G7572, Promega, Madison, WI, USA) was used, following the manufacturer’s instructions. Briefly, the cells were seeded with 25,000 viable cells per cavity of a 96-well opaque white cell culture plate (Thermo Fisher, Waltham, MA, USA) in 80 µL of a pre-warmed medium. Tryptophan degradation compounds were added in triplicates to the cells, ranging from 1 mM to 46 nM. A DMSO control was added in the same concentration range as the tryptophan degradation compounds were diluted. The dose response curves were fitted with a 4PL model by GraphPad Prism v.7 (GraphPad Software, San Diego, CA, USA) after luminescence readout with an EnVision 2104 Multilabel Reader (Perkin Elmer, Waltham, MA, USA)."}, "CHOZN 10 cells": {"system": "CHOZN 10 cells", "experiment": "CellTiter-Glo cytotoxicity assay in CHOZN 10 cell line", "format": "cell-based, Chinese hamster", "details": "Cricetulus griseus; CHOZN 10 cell line; 1 mM to 46 nM, 4PL fit; read-out: [GI50] CHOZN 10", "protocol": "as §4"}, "CHOK1 cells": {"system": "CHOK1 cells", "experiment": "CellTiter-Glo cytotoxicity assay in CHOK1 cell line", "format": "cell-based, Chinese hamster", "details": "Cricetulus griseus, CHO-K1; CHOK1 cell line; 1 mM to 46 nM, 4PL fit; read-out: [GI50] CHOK1", "protocol": "as §4"}, "[2]": {"experiment": "Color measurement (ΔE*) of standards spiked into feed", "format": "physicochemical", "details": "theoretical 500 µM, 1% DMSO, ΔE* > 1 deemed significant", "protocol": "as §1, §2, §3"}, "CHO cells": {"system": "CHO cells", "experiment": "CHO cell toxicity summarised across the four CHO cell lines", "format": "cell-based, Chinese hamster", "details": "Cricetulus griseus; across all four CHO cell lines; read-out: GI50 across all cell lines", "protocol": "as §4"}, "[3]": {"details": "CHO-K1, CHOK1 GS cell line, 1 mM to 46 nM, 4PL fit, read-out: [GI50] CHOK1 GS"}, "[4]": {"details": "CHO-K1, read-out: [GI50] CHOK1 GS"}}, "note": "Where two headings read alike, the source gives them in different places."}
{"smiles": "Nc1ccccc1C(=O)CC(N)C(=O)O", "note": "(stereo not drawn) [Compound 1, Kynurenine]", "values": [{"measurement": "GI50", "setting": "CHOK1 GS cells; [3]", "value": "> 1000", "unit": "µM"}]}
{"smiles": "NC(CC(=O)c1ccccc1NC=O)C(=O)O", "note": "(stereo not drawn) [Compound 2, N-Formylkynurenine]", "values": [{"measurement": "GI50", "setting": "CHOK1 GS cells; [3]", "value": "> 1000", "unit": "µM"}]}
{"smiles": "NC(CC1C(=O)Nc2ccccc21)C(=O)O", "note": "(stereo not drawn) [Compound 3, 2-amino-3-(2-oxo-2,3-dihydro-1h-indol-3-yl)propanic acid (Oia)]", "values": [{"measurement": "GI50", "setting": "CHOK1 GS cells; [3]", "value": "> 1000", "unit": "µM"}]}
{"smiles": "NC(CC1(O)C(=O)Nc2ccccc21)C(=O)O", "note": "[Compound 4, 3-(3-Hydroxy-2-oxo-2,3-dihydro-1H-indol-3-yl)-L-alanine (diOia)]", "values": [{"measurement": "GI50", "setting": "CHOK1 GS cells; [3]", "value": "> 1000", "unit": "µM"}]}
{"smiles": "O=C(O)c1nccc2c1[nH]c1ccccc12", "note": "[Compound 5, 9H-Pyrido[3,4-b]indole-1-carboxylic acid]", "values": [{"measurement": "Color change as measured by ΔE* in water", "setting": "[1]", "value": "significant color change"}, {"measurement": "GI50", "setting": "CHOZN 6 cells", "value": 76.7, "unit": "µM"}, {"measurement": "GI50", "setting": "CHOZN 10 cells", "value": 75.5, "unit": "µM"}, {"measurement": "GI50", "setting": "CHOK1 cells", "value": 158, "unit": "µM"}, {"measurement": "Color change as measured by ΔE* in feed", "setting": "[2]", "value": "significant color change"}, {"measurement": "GI50", "setting": "CHOK1 GS cells; [3]", "value": 118, "unit": "µM"}]}
{"smiles": "O=C(O)C1CC2(O)c3ccccc3NC2N1", "note": "(stereo not drawn) [Compound 6, 1,2,3,3a,8,8a-Hexahydro-3a-hydroxypyrrolo[2,3-b]indole-2-carboxylic acid (PIC)]", "values": [{"measurement": "GI50", "setting": "CHOK1 GS cells; [3]", "value": "> 1000", "unit": "µM"}]}
{"smiles": "c1ccc2ncccc2c1", "note": "[Compound 8, Quinoline]", "values": [{"measurement": "GI50", "setting": "CHOK1 GS cells; [4]", "value": "> 1000", "unit": "µM"}]}
{"smiles": "NCCc1c(O)[nH]c2ccccc12", "note": "[Compound 9]", "values": [{"measurement": "GI50", "setting": "CHOK1 GS cells; [3]", "value": "> 1000", "unit": "µM"}]}
{"smiles": "OC12CCNC1Nc1ccccc12", "note": "(stereo not drawn) [Compound 10]", "values": [{"measurement": "GI50", "setting": "CHOK1 GS cells; [3]", "value": "> 1000", "unit": "µM"}]}
{"smiles": "NCCc1c[nH]c2ccccc12", "note": "[Compound 11, Tryptamine]", "values": [{"measurement": "GI50", "setting": "CHOK1 GS cells; [4]", "value": "> 1000", "unit": "µM"}]}
{"smiles": "O=CCc1c[nH]c2ccccc12", "note": "[Compound 12, Indole-3-acetaldehyde]", "values": [{"measurement": "GI50", "setting": "CHOZN 6 cells", "value": 54.5, "unit": "µM"}, {"measurement": "GI50", "setting": "CHOZN 10 cells", "value": 92.3, "unit": "µM"}, {"measurement": "GI50", "setting": "CHOK1 cells", "value": 116, "unit": "µM"}, {"measurement": "GI50", "setting": "CHOK1 GS cells; [3]", "value": 64.5, "unit": "µM"}]}
{"smiles": "N[C@@H](Cc1c(Cc2c[nH]c3ccccc23)[nH]c2ccccc12)C(=O)O", "note": "[Compound 14, 2-(3-Indolylmethyl)-L-tryptophan]", "values": [{"measurement": "GI50", "setting": "CHOK1 GS cells; [3]", "value": "> 1000", "unit": "µM"}]}
{"smiles": "O=C(O)c1cc2c([nH]c3ccccc32)c(-c2ccccc2)n1", "note": "[Compound 16]", "values": [{"measurement": "Color change as measured by ΔE* in water", "setting": "[1]", "value": "significant color change"}, {"measurement": "GI50", "setting": "CHOZN 6 cells", "value": 88.5, "unit": "µM"}, {"measurement": "GI50", "setting": "CHOZN 10 cells", "value": 57.6, "unit": "µM"}, {"measurement": "GI50", "setting": "CHOK1 cells", "value": 74.9, "unit": "µM"}, {"measurement": "GI50", "setting": "CHOK1 GS cells; [3]", "value": 76.6, "unit": "µM"}]}
{"smiles": "O=Cc1c[nH]c2ccccc12", "note": "[Compound 18, Indole-3-carboxaldehyde]", "values": [{"measurement": "GI50", "setting": "CHOZN 6 cells", "value": 236, "unit": "µM"}, {"measurement": "GI50", "setting": "CHOZN 10 cells", "value": 258, "unit": "µM"}, {"measurement": "GI50", "setting": "CHOK1 cells", "value": 226, "unit": "µM"}, {"measurement": "GI50", "setting": "CHOK1 GS cells; [3]", "value": 295, "unit": "µM"}, {"measurement": "GI50", "setting": "CHO cells", "value": "> 226", "unit": "µM"}]}
{"smiles": "O=C1Cc2ccccc2N1", "note": "[Compound 19, 2-Oxindole]", "values": [{"measurement": "GI50", "setting": "CHOK1 GS cells; [3]", "value": "> 1000", "unit": "µM"}]}
{"smiles": "Oc1ccnc2ccccc12", "note": "[Compound 20, 4-Hydroxyquinoline]", "values": [{"measurement": "GI50", "setting": "CHOK1 GS cells; [4]", "value": "> 1000", "unit": "µM"}]}
{"smiles": "O=C(O)c1ccnc2ccccc12", "note": "[Compound 21, 4-Quinolinecarboxylic acid]", "values": [{"measurement": "GI50", "setting": "CHOK1 GS cells; [3]", "value": "> 1000", "unit": "µM"}]}
